This is an account of results in patent US5834431A, “Des-Arg^9 -BK antagonists” (Cortech, Inc., priority 1995, dated 1998).

The term pIC50 denotes the IC50 on a negative log10 scale, so that one unit is a factor of ten. A lower pIC50 goes with a high IC50.

pIC50: −log10 of the molar value. Square brackets hold non-standard residues; d marks the D form. Peptide text beside a SMILES is read from it. * marks the point of attachment. Oic = O=C(O)[C@@H]1C[C@@H]2CCCC[C@@H]2N1; X1 = N=C(N)NCCC[C@@H](NC(=N)N)C(=O)*; dIgl = N[C@@H](C(=O)O)C1Cc2ccccc2C1; Gly(cPent) = N[C@H](C(=O)O)C1CCCC1; Igl = N[C@H](C(=O)O)C1Cc2ccccc2C1; Hyp = O=C(O)[C@@H]1C[C@@H](O)CN1; Tic = O=C(O)[C@@H]1Cc2ccccc2CN1; dTic = O=C(O)[C@H]1Cc2ccccc2CN1; 2Thi = N[C@@H](Cc1cccs1)C(=O)O

The target of one test is T1, B1 receptor (Homo sapiens, UniProt P46663).
T1 construct: Human lung fibroblasts IMR-90 cells were obtained from ATCC and propagated in DMEM media; host or cells: IMR-90 human lung fibroblasts, treated with interleukin 1b three hours before harvest; membranes
T1 sequence (P46663 1-353): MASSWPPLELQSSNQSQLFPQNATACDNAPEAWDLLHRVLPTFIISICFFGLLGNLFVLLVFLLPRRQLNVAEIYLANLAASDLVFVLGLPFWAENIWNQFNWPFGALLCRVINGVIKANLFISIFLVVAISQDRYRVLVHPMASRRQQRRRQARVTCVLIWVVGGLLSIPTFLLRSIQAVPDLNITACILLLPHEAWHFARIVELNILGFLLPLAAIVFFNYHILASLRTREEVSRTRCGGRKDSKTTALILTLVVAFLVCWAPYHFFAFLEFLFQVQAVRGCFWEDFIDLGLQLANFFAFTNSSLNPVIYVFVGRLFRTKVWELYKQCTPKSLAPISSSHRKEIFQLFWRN
Description: Human B1 binding, IL-1b-treated IMR-90 membranes, 3H-des-Arg9-Kallidin. The settings on record: 0.5 nM 3H-des-Arg9-Kallidin, pIC50 = -log of molar IC50. The procedure:
(§1) Human lung fibroblasts IMR-90 cells were obtained from ATCC and propagated in DMEM media in […] roller bottles until confluent. Three hours prior to harvesting, the cells were treated with Interleukin lb (200 pg/ml). Human BK2 clones were propagated in F12 media until confluent. Preparation of membranes for binding assays was carried out by scraping cells from roller bottles in ice cold PBS and centrifuging at 1000 ×g, at 4° C. for 15 minutes. The supernatant was discarded and pellet resuspended in Buffer A consisting of 25 mM TES(pH 6.8) with 2 uM 1,10-Phenanthroline, and centrifuged at 27,000 ×g for 15 min. this was then repeated. The final pellet was resuspended in Buffer B (Buffer A with 2 uM Captopril, 140 ug/Ml Bacitracin, 0.1%BSA), and stored in 1 ml aliquots, frozen at -20° C. until needed.
(§2) Binding assays were performed by incubating human clone membranes with 0.3 nM ^3 H-Bradykinin or IMR-90 membranes with 0.5 nM ^3 H-des-Arg^9 -Kallidin in the presence of the peptides in assay buffer (Buffer B with 1 mM Dithiotreitol), at room temperature, for 45 minutes. All test compound dilutions were in triplicate. Assays were harvested by quick filtration in a Tomtec Harvester 96, with ice cold wash buffer consisting of 10 mM Tris/HCl, pH 7.5, 100 mM NaCl, 0.02%BSA, onto Wallec printed glassfiber Filtermat "B", which had been pre-soaked with 0.1% PEI and previously air-dried.

Test [1] addresses T2, B2 receptor (Homo sapiens, UniProt P30411).
T2 construct: expressed in transfected cells
T2 sequence (P30411 1-391): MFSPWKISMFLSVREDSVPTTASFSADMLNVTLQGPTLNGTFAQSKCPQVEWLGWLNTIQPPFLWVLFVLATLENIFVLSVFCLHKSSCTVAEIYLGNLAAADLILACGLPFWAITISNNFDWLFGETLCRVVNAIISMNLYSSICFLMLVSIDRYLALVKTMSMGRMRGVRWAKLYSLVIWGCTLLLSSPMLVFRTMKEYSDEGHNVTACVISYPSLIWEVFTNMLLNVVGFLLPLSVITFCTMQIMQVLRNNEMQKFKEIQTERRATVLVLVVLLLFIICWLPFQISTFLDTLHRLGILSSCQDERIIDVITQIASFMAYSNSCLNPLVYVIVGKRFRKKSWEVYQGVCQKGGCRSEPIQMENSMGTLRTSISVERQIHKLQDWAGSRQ
Description: Human B2 binding, human BK2 clone membranes, 3H-Bradykinin. The following applies: 0.3 nM 3H-Bradykinin, i.a. = inactive; for IC50: read-out: Human Binding - pIC50 B2 (converted). The procedure: as §1
as §2, with “air-dried. Filtermats were counted in 9.5 mls Wallec Beta-Plate Scint, in Wallec 1450 MicroBeta Counter.” for “air-dried.”

The target in test [2] is T3, B2 receptor (Cavia porcellus, UniProt O70526).
T3 construct: from tissue
T3 sequence (O70526 1-372): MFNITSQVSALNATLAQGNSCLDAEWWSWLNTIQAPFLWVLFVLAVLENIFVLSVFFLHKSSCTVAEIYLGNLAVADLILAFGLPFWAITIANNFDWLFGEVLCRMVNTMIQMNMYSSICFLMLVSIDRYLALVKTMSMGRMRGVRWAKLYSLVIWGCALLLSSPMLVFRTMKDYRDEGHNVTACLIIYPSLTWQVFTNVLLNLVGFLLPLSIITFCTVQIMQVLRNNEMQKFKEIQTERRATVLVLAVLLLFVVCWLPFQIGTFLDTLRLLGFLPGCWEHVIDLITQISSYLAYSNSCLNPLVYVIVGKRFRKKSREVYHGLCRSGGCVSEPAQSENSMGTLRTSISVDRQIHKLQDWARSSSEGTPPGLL
Description: GPI binding B2. The settings on record: i.a. = inactive; for IC50: read-out: GPI Binding - pIC50 B2 (converted).

Test [3] deals with T4, BK1 (hypotensive response to desArg9BK) (Canis lupus familiaris, UniProt Q9BDQ5).
T4 construct: Mongrel dogs of either sex, weight range 10-15 kg were used; from tissue; host or cells: whole anaesthetized mongrel dog (in vivo blood pressure)
T4 sequence (Q9BDQ5 1-350): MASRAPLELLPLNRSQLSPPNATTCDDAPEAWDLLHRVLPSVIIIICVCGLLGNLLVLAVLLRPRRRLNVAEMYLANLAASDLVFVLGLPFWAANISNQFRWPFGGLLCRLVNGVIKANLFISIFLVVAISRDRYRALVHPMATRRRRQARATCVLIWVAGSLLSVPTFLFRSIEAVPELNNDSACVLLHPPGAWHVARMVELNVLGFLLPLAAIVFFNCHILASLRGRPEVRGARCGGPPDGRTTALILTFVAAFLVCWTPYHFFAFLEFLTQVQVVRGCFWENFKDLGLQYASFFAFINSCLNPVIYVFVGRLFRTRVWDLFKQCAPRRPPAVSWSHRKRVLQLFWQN
Put plainly: In vivo inhibition of hypotensive response to desArg9BK in anaesthetized dogs. More on the design: species or system Mongrel dogs. The following applies: dog, infusion; dose of antagonist to inhibit hypotensive response to desArg9BK by 50%. As to the method: Mongrel dogs of either sex, weight range 10-15 kg were used. These were anaesthesized with pentobarbitone, 30 mg/kg i.v. and catheters placed in one femoral artery and both femoral veins for the recording of blood pressure and infusion and injection of compounds. […] After the end of the infusion of the highest dose of the antagonist compound, BK and des-Arg^9 -BK were injected at intervals for up to four hours.

As to `N=C(N)NCCC[C@@H](N)C(=O)N[C@@H](CCCNC(=N)N)C(=O)N1CCC[C@H]1C(=O)N1C[C@H](O)C[C@H]1C(=O)NCC(=O)N[C@H](C(=O)N[C@@H](CO)C(=O)N1Cc2ccccc2C[C@H]1C(=O)N[C@H](C(=O)O)C1CCCC1)C1CCCC1` [B9004, DArg-Arg-Pro-Hyp-Gly-Cpg-Ser-Tic-Cpg] (H-[dR]RP[Hyp]G[Gly(cPent)]S[Tic][Gly(cPent)]-OH), on B1 receptor, the pIC50 was 8.50. Further, the results for the IC50 on B2 receptor [1] and at B2 receptor [2] were 1580 nM and 6310 nM, respectively.

Consider `N=C(N)NCCC[C@@H](N)C(=O)N[C@@H](CCCNC(=N)N)C(=O)N1CCC[C@H]1C(=O)N1C[C@H](O)C[C@H]1C(=O)NCC(=O)N[C@@H](Cc1cccs1)C(=O)N[C@@H](CO)C(=O)N1Cc2ccccc2C[C@H]1C(=O)N[C@H](C(=O)O)C1CCCC1` [B9006, DArg-Arg-Pro-Hyp-Gly-Thi-Ser-Tic-Cpg] (H-[dR]RP[Hyp]G[2Thi]S[Tic][Gly(cPent)]-OH), for which the negative-log IC50 (pIC50) at B1 receptor is 7.90. In addition, the values for the IC50 on B2 receptor [1] and at B2 receptor [2] were 631 nM and 10000 nM, respectively.

`N=C(N)NCCC[C@@H](N)C(=O)N[C@@H](CCCNC(=N)N)C(=O)N1CCC[C@H]1C(=O)N1C[C@H](O)C[C@H]1C(=O)NCC(=O)N[C@@H](Cc1cccs1)C(=O)N[C@@H](CO)C(=O)N1Cc2ccccc2C[C@@H]1C(=O)N[C@H](C(=O)O)C1CCCC1` [B9068, DArg-Arg-Pro-Hyp-Gly-Thi-Ser-DTic-Cpg] (H-[dR]RP[Hyp]G[2Thi]S[dTic][Gly(cPent)]-OH) showed a pIC50 at B1 receptor of 8.80. In addition, the IC50 at B2 receptor [1] is 2000 nM; at B2 receptor [2], 7940 nM.

Take `CC(C)C[C@H](NC(=O)[C@@H]1CCCN1C(=O)[C@H](CO)NC(=O)[C@H](Cc1ccccc1)NC(=O)CNC(=O)[C@@H]1CCCN1C(=O)[C@@H]1CCCN1C(=O)[C@H](CCCNC(=N)N)NC(=O)[C@H](CCCCN)NC(=O)CNC(=N)N)C(=O)O` [B9810]: the “Human Binding - pIC50 B2” value at B2 receptor [1] was “i.a”. Moreover, the “GPI Binding - pIC50 B2” value on B2 receptor [2] is recorded as “i.a”.

For the compound `CC(C)C[C@H](NC(=O)[C@H](NC(=O)[C@H](CO)NC(=O)[C@@H](NC(=O)CNC(=O)[C@@H]1C[C@@H](O)CN1C(=O)[C@@H]1CCCN1C(=O)[C@@H](N)CCCNC(=N)N)C1Cc2ccccc2C1)C1Cc2ccccc2C1)C(=O)O` [B9814, Arg-Pro-Hyp-Gly-Igl-Ser-DIgl-Leu] (H-RP[Hyp]G[Igl]S[dIgl]L-OH), the negative logarithm of the IC50 (pIC50) on B1 receptor is 8.20. In addition, at B2 receptor [1], the “Human Binding - pIC50 B2” value is “i.a”. Besides, the “GPI Binding - pIC50 B2” value on B2 receptor [2] was “i.a”.

Turning to `CC(C)C[C@H](NC(=O)[C@H](NC(=O)[C@H](CO)NC(=O)[C@@H](NC(=O)CNC(=O)[C@@H]1C[C@@H](O)CN1C(=O)[C@@H]1CCCN1C(=O)[C@H](CCCNC(=N)N)NC(=O)[C@H](N)CCCNC(=N)N)C1Cc2ccccc2C1)C1Cc2ccccc2C1)C(=O)O` [B9816, DArg-Arg-Pro-Hyp-Gly-Igl-Ser-DIgl-Leu] (H-[dR]RP[Hyp]G[Igl]S[dIgl]L-OH), the pIC50 at B1 receptor was 8.90. For the same compound, the IC50 is 631 nM at B2 receptor [1] and 2000 nM at B2 receptor [2].

In turn, `N=C(N)NCCC[C@H](NC(=O)[C@@H](CCCNC(=N)N)NC(=N)N)C(=O)N1CCC[C@H]1C(=O)N1C[C@H](O)C[C@H]1C(=O)NCC(=O)N[C@@H](Cc1cccs1)C(=O)N[C@@H](CO)C(=O)N[C@@H](C(=O)N1[C@H](C(=O)O)C[C@@H]2CCCC[C@@H]21)C1Cc2ccccc2C1` [B9826, Gun- DArg-Arg-Pro-Hyp-Gly-Thi-Ser-DIgl-Oic] (X1-RP[Hyp]G[2Thi]S[dIgl][Oic]-OH) gave a negative logarithm of the IC50 (pIC50) at B1 receptor of 9.90. The IC50 on B2 receptor [1] is 7.94 nM; on B2 receptor [2] it was 79.4 nM.

Take `N=C(N)NCCC[C@@H](N)C(=O)N[C@@H](CCCNC(=N)N)C(=O)N1CCC[C@H]1C(=O)N1C[C@H](O)C[C@H]1C(=O)NCC(=O)N[C@H](C(=O)N[C@@H](CO)C(=O)N1Cc2ccccc2C[C@@H]1C(=O)N[C@H](C(=O)O)C1CCCC1)C1Cc2ccccc2C1` [B9840, DArg-Arg-Pro-Hyp-Gly-Igl-Ser-DTic-Cpg] (H-[dR]RP[Hyp]G[Igl]S[dTic][Gly(cPent)]-OH): the pIC50 on B1 receptor is 9.10. The IC50 at B2 receptor [1] is 631 nM. At B2 receptor [2], the “GPI Binding - pIC50 B2” value is recorded as “i.a”.

In turn, `N=C(N)NCCC[C@H](NC(=O)[C@@H](N)CCCCN)C(=O)N1CCC[C@H]1C(=O)N1C[C@H](O)C[C@H]1C(=O)NCC(=O)N[C@H](C(=O)N[C@@H](CO)C(=O)N1Cc2ccccc2C[C@@H]1C(=O)N[C@H](C(=O)O)C1CCCC1)C1Cc2ccccc2C1` [B9842, Lys-Arg-Pro-Hyp-Gly-Igl-Ser-DTic-Cpg] (H-KRP[Hyp]G[Igl]S[dTic][Gly(cPent)]-OH) gave a pIC50 on B1 receptor of 9.60. Moreover, the IC50 at B2 receptor [1] was 631 nM. Also, at B2 receptor [2], the “GPI Binding - pIC50 B2” value is reported as “i.a”.

For the compound `N=C(N)NCCC[C@H](NC(=O)[C@H](CCCCN)NC(=O)[C@@H](N)CCCCN)C(=O)N1CCC[C@H]1C(=O)N1C[C@H](O)C[C@H]1C(=O)NCC(=O)N[C@H](C(=O)N[C@@H](CO)C(=O)N[C@@H](C(=O)N1[C@H](C(=O)O)C[C@@H]2CCCC[C@@H]21)C1Cc2ccccc2C1)C1Cc2ccccc2C1` [B9858, Lys- Lys-Arg-Pro-Hyp-Gly-Igl-Ser-DIgl-Oic], the values for the IC50 at B2 receptor [1] and at B2 receptor [2] were 20 nM and 126 nM, respectively. Besides, the “BK1 ED50” value in test [3] amounted to 0.03 ± 0.01 µg/kg/min.
